Source: US5457121A, “Cis-hexahydro-5-(1,2,3,4-tetrahydro-2-naphthalenyl)pyrrolo<3,4-c> pyrroles as inhibitors of serotonin reuptake” (Eli Lilly and Company, priority 1994, dated 1995)

System: serotonin reuptake (5HT), rat cerebral cortex synaptosomes
Assay: Inhibition of synaptosomal reuptake of 3H-serotonin (3H-5HT) in cortical synaptosomes
Assay type: biochemical, rat (male Sprague-Dawley)
Conditions: 37° C., 5 min, 50 nM 3H-5HT, read-out: IC50 (nM) 5HT (concentration needed to inhibit the uptake of 3H-5HT by 50%)
Experimental: This general procedure is described in Wong et al., Drug Development Research, 6, 397-403 (1985).
Male Sprague-Dawley rats (110-150 gm) from Harlan Industries (Cumberland, Ind.) were fed Purina Chow ad libitum for at least three days before being used in the study. Rats were killed by decapitation. Whole brains were removed and dissected. Cerebral cortex was homogenized in 9 volumes of a medium containing 0.32 M sucrose and 10 mM glucose. Crude synaptosomal preparations were isolated after differential centrifugation at 1,000 g for 10 min. and 17,000 g for 28 min. The final pellets were suspended in the same medium and kept in ice until use within the same day.
Synaptosomal reuptake of ^3 H-serotonin (^3 H-5-hydroxytryptamine, ^3 H-5HT) was determined as follows: Cortical synaptosomes (equivalent to 1 mg protein) were incubated at 37° C. for 5 min. in 1 mL of Krebs-bicarbonate medium containing also 10 mM glucose, 0.1 mM iproniazide, 1 mM ascorbic acid, 0.17 mM EDTA and 50 nM ^3 H-5HT. The reaction mixture was immediately diluted with 2 mL of ice chilled Krebs-bicarbonate buffer and filtered under vacuum with a cell harvester (Brandel, Gaithersburg, Md.). Filters were rinsed twice with approximately 5 mL ice chilled 0.9% saline and were transferred to a counting vial containing 10 mL of scintillation fluid (PCS, Amersham, Arlington Heights, Ill.). Radioactivity was measured by a liquid scintillation spectrophotometer. Accumulation of ^3 H-5HT at 4° C. represented the background and was subtracted from all samples.

**Q.** For `CN1C[C@@H]2CN(C3CCc4ccccc4C3)C[C@@H]2C1` (relative stereo) [Example 1, cis-hexahydro-2-methyl-5-(1,2,3,4-tetrahydro-2-naphthalenyl) pyrrolo<3,4-c>pyrrole dimaleate], which IC50 is on record?
**A.** The IC50 was 122 nM.

**Q.** Which IC50 does the source give for `CN1C[C@@H]2CN(C3CCc4cccc(Cl)c4C3)C[C@@H]2C1` (relative stereo) [Example 2, cis-hexahydro-2-methyl-5-(1,2,3,4-tetrahydro-8-chloro-2-naphthalenyl)pyrrolo<3,4-c>pyrrole dimaleate] here?
**A.** The IC50 was 42 nM.

**Q.** `COc1cccc2c1CC(N1C[C@H]3CN(C)C[C@H]3C1)CC2` (relative stereo) [Example 3, cis-hexahydro-2-methyl-5-(1,2,3,4-tetrahydro-8-methoxy-2-naphthalenyl)pyrrolo<3,4-c>pyrrole dimaleate] was tested. Which IC50 did it give?
**A.** Its IC50 is 20 nM.

**Q.** How did the IC50 turn out when `CN1C[C@@H]2CN(C3CCc4cccc(O)c4C3)C[C@@H]2C1` (relative stereo) [Example 4, cis-hexahydro-2-methyl-5-(1,2,3,4-tetrahydro-8-hydroxy-2-naphthalenyl)pyrrolo<3,4-c>pyrrole dimaleate] was run?
**A.** Its IC50 is 5.4 nM.

**Q.** Which IC50 does the source give for `COc1ccc(Br)c2c1CC(N1C[C@H]3CN(C)C[C@H]3C1)CC2` (relative stereo) [Example 5, cis-hexahydro-2-methyl-5-(1,2,3,4-tetrahydro-5-bromo-8-methoxy-2-naphthalenyl)pyrrolo<3,4-c>pyrrole dimaleate] here?
**A.** Its IC50 is 38 nM.

**Q.** `COc1cccc2c1CC(N1C[C@H]3CN(Cc4ccccc4)C[C@H]3C1)CC2` (relative stereo) [Example 6, cis-hexahydro-2-benzyl-5-(1,2,3,4-tetrahydro-8-methoxy-2-naphthalenyl)pyrrolo<3,4-c>pyrrole dimaleate] was tested. Which IC50 did it give?
**A.** The IC50 was 60 nM.

**Q.** How did the IC50 turn out when `COc1cccc2c1CC(N1C[C@H]3CNC[C@H]3C1)CC2` (relative stereo) [Example 7, cis-hexahydro-5-(1,2,3,4-tetrahydro-8-methoxy-2-naphthalenyl)pyrrolo<3,4-c>pyrrole dimaleate] was run?
**A.** The IC50 was 30 nM.

**Q.** For `COc1ccc(Br)c2c1CC(N1C[C@H]3CNC[C@H]3C1)CC2` (relative stereo) [Example 8, cis-hexahydro-5-(1,2,3,4-tetrahydro-5-bromo-8-methoxy-2-naphthalenyl)pyrrolo<3,4-c>pyrrole dimaleate], which IC50 is on record?
**A.** The IC50 was 50 nM.

**Q.** `Cc1cccc2c1CC(N1C[C@H]3CN(C)C[C@H]3C1)CC2` (relative stereo) [Example 9, cis-hexahydro-2-methyl-5-(1,2,3,4-tetrahydro-8-methyl-2-naphthalenyl)pyrrolo<3,4-c>pyrrole dimaleate] was tested. Which IC50 did it give?
**A.** Its IC50 is 293 nM.

**Q.** With `Cc1ccc(Br)c2c1CC(N1C[C@H]3CN(C)C[C@H]3C1)CC2` (relative stereo) [Example 10, cis-hexahydro-2-methyl-5-(1,2,3,4-tetrahydro-5-bromo-8-methyl-2-naphthalenyl)pyrrolo<3,4-c>pyrrole dimaleate] as the molecule, how does the IC50 read?
**A.** The IC50 was 413 nM.

**Q.** `COc1cccc2c1[C@@H](C)[C@@H](N1C[C@H]3CN(C)C[C@H]3C1)CC2` (relative stereo) [Example 11, cis-hexahydro-2-methyl-5-(cis-1-methyl-1,2,3,4-tetrahydro-8-methoxy-2-naphthalenyl)pyrrolo<3,4-c>pyrrole dimaleate] was tested. Which IC50 did it give?
**A.** The IC50 was 65 nM.

**Q.** With `COc1cccc2c1[C@@H](C)[C@@H](N1C[C@H]3CNC[C@H]3C1)CC2` (relative stereo) [Example 12, cis-hexahydro-5-(cis-1-methyl-1,2,3,4-tetrahydro-8-methoxy-2-naphthalenyl)pyrrolo<3,4-c>pyrrole dimaleate] as the molecule, how does the IC50 read?
**A.** The IC50 was 340 nM.
